Reference: the kinase profiling compilation of Christmann-Franck et al. (2016)

Key:
Test in all cases: KINOMEscan competition binding
Conditions in all cases: compound 10.0 µM
[1] = biological target: JAK3 JH1 catalytic (human) (UniProt P52333)
[2] = biological target: ERBB4 (human) (UniProt Q15303)
[3] = biological target: AURKC (human) (UniProt Q9UQB9)
[4] = test system: FLT3 (human), P36888 [ITD]
[5] = biological target: STK33 (human) (UniProt Q9BYT3)
[6] = biological target: TYRO3 (human) (UniProt Q06418)
[7] = biological target: MERTK (human) (UniProt Q12866)
[8] = biological target: JAK1 JH1 catalytic (human) (UniProt P23458)
JAK1 JH1 catalytic (human), sequence (P23458 whole entry, looked up): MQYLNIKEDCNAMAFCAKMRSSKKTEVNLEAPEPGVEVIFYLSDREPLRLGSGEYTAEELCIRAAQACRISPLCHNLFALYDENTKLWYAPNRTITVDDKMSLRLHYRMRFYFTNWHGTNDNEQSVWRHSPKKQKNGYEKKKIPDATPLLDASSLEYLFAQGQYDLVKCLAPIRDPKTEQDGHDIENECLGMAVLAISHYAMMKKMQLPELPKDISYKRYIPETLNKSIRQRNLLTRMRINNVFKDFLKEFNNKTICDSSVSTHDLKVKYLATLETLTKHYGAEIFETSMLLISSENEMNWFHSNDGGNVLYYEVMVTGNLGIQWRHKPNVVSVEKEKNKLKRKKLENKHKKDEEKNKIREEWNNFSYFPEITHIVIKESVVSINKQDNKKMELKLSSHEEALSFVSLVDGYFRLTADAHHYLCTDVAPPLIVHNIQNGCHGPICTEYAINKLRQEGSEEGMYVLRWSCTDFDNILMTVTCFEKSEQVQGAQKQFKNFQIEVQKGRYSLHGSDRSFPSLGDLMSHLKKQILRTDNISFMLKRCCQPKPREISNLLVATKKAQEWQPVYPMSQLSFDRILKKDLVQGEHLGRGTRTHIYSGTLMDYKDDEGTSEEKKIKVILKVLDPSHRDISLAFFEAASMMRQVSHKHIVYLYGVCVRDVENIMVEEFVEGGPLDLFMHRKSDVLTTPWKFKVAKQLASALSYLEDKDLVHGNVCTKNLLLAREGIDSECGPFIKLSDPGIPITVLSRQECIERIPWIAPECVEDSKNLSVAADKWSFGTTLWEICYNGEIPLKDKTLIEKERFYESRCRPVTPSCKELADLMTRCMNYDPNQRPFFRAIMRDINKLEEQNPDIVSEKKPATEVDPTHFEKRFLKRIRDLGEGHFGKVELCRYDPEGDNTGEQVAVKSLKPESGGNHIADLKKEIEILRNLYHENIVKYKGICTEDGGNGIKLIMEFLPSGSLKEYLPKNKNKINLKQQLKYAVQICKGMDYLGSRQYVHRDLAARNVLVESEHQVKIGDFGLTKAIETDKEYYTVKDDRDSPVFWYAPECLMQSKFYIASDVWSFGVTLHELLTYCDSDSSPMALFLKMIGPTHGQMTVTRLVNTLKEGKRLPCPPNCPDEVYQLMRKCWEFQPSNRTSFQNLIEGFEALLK

[9] = biological target: RPS6KA2 KD1 (human) (UniProt Q15349)
[10] = biological target: BRSK2 (human) (UniProt Q8IWQ3)
[11] = biological target: PAK2 (human) (UniProt Q13177)
[12] = biological target: BMPR2 (human) (UniProt Q13873)
[13] = biological target: CDC42BPB (human) (UniProt Q9Y5S2)
[14] = biological target: GSK3B (human) (UniProt P49841)
[15] = biological target: CSNK2A1 (human) (UniProt P68400)
[16] = biological target: MAP4K4 (human) (UniProt O95819)
[17] = biological target: LIMK1 (human) (UniProt P53667)
LIMK1 (human), sequence (P53667 whole entry, looked up): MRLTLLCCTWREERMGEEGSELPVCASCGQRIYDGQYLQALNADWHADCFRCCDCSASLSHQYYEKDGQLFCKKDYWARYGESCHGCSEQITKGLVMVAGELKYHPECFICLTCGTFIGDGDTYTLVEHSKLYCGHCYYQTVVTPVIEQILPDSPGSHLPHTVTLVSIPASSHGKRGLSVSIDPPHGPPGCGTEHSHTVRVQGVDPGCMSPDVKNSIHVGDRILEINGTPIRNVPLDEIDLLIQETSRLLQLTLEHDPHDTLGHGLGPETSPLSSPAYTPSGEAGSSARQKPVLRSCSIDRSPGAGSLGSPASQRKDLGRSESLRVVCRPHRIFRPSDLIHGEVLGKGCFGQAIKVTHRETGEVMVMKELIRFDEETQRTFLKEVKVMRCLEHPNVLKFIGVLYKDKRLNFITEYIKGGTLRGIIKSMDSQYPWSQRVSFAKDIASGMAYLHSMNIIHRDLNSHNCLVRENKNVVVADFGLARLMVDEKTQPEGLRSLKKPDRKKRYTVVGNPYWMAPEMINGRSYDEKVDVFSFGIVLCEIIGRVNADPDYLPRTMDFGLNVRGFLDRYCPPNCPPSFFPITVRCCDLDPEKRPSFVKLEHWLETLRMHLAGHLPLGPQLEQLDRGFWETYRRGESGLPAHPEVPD

[18] = biological target: CSK (human) (UniProt P41240)
[19] = biological target: RAF1 (human) (UniProt P04049)
[20] = biological target: NUAK1 (human) (UniProt O60285)
[21] = biological target: IGF1R (human) (UniProt P08069)
[22] = biological target: PRKCD (human) (UniProt Q05655)
[23] = biological target: FGFR3 (human) (UniProt P22607)
[24] = biological target: BLK (human) (UniProt P51451)
[25] = biological target: NTRK3 (human) (UniProt Q16288)
[26] = biological target: PKN2 (human) (UniProt Q16513)
PKN2 (human), sequence (Q16513 whole entry, looked up): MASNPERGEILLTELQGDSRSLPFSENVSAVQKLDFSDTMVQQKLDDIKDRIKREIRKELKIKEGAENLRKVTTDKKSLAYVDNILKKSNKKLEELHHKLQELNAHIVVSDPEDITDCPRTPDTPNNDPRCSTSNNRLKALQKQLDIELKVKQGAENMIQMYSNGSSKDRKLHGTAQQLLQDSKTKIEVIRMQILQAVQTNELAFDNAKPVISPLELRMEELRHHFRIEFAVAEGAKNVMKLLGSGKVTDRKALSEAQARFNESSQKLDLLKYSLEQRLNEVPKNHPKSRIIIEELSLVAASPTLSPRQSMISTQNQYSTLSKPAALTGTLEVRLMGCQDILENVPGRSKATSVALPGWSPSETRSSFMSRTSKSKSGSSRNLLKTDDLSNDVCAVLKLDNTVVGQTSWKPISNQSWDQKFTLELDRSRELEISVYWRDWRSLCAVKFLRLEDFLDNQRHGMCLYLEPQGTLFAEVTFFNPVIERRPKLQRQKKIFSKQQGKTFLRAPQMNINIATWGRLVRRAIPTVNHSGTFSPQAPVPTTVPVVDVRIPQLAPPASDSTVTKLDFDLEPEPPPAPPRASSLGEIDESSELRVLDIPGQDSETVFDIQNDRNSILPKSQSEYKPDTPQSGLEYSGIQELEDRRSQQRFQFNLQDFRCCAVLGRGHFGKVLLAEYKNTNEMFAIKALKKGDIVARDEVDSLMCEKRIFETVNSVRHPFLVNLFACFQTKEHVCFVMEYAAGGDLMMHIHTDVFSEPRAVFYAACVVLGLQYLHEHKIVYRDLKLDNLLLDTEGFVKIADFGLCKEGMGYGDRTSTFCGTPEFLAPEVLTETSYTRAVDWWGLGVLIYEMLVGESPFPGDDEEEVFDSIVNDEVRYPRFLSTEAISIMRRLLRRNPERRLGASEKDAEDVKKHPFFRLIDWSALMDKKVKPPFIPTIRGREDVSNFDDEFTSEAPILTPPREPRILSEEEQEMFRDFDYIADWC

[27] = biological target: DCLK2 (human) (UniProt Q8N568)
[28] = biological target: STK24 (human) (UniProt Q9Y6E0)
[29] = biological target: DCLK3 (human) (UniProt Q9C098)
[30] = biological target: ROCK2 (human) (UniProt O75116)
[31] = biological target: AKT3 (human) (UniProt Q9Y243)
[32] = biological target: PDPK1 (human) (UniProt O15530)
[33] = biological target: MARK3 (human) (UniProt P27448)
[34] = biological target: PRKG2 (human) (UniProt Q13237)
PRKG2 (human), sequence (Q13237 whole entry, looked up): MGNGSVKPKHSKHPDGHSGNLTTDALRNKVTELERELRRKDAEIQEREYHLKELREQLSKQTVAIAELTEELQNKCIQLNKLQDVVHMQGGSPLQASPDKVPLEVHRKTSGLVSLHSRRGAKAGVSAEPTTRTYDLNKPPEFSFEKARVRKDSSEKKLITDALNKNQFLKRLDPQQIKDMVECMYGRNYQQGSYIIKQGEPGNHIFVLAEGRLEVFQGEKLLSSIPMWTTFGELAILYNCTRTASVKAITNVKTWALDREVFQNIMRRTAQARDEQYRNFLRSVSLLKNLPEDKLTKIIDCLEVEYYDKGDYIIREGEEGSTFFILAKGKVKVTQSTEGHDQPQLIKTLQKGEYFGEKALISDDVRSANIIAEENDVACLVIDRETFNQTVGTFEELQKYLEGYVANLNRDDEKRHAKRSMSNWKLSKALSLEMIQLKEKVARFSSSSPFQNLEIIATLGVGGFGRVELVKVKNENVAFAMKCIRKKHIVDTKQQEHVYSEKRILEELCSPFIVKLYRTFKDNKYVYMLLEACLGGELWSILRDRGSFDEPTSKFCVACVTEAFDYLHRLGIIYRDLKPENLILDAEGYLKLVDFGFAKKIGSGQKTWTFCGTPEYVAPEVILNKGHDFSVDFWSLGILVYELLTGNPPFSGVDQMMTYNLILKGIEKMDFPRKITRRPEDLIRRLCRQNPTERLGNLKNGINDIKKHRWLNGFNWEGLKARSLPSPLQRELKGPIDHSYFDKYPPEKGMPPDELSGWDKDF

[35] = biological target: CAMKK2 (human) (UniProt Q96RR4)
[36] = biological target: CAMKK1 (human) (UniProt Q8N5S9)
[37] = biological target: MARK2 (human) (UniProt Q7KZI7)
[38] = biological target: IKBKB (human) (UniProt O14920)
[39] = biological target: RPS6KA6 KD1 (human) (UniProt Q9UK32)
[40] = biological target: MAPKAPK5 (human) (UniProt Q8IW41)
MAPKAPK5 (human), sequence (Q8IW41 whole entry, looked up): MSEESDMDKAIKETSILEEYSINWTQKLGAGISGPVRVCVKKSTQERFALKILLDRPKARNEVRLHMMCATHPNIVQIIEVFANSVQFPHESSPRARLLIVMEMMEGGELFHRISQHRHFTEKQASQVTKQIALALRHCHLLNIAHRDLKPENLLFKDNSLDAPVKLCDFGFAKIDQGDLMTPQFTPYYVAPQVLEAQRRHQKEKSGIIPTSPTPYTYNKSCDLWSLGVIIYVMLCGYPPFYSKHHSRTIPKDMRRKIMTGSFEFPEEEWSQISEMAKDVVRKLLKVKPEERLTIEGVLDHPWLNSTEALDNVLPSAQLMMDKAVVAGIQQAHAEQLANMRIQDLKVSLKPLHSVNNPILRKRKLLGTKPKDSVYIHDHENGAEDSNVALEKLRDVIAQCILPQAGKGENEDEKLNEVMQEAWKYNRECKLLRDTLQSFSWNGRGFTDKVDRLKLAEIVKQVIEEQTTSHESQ

FLT3 (human), P36888 [ITD], sequence (P36888 whole entry, looked up, change not shown): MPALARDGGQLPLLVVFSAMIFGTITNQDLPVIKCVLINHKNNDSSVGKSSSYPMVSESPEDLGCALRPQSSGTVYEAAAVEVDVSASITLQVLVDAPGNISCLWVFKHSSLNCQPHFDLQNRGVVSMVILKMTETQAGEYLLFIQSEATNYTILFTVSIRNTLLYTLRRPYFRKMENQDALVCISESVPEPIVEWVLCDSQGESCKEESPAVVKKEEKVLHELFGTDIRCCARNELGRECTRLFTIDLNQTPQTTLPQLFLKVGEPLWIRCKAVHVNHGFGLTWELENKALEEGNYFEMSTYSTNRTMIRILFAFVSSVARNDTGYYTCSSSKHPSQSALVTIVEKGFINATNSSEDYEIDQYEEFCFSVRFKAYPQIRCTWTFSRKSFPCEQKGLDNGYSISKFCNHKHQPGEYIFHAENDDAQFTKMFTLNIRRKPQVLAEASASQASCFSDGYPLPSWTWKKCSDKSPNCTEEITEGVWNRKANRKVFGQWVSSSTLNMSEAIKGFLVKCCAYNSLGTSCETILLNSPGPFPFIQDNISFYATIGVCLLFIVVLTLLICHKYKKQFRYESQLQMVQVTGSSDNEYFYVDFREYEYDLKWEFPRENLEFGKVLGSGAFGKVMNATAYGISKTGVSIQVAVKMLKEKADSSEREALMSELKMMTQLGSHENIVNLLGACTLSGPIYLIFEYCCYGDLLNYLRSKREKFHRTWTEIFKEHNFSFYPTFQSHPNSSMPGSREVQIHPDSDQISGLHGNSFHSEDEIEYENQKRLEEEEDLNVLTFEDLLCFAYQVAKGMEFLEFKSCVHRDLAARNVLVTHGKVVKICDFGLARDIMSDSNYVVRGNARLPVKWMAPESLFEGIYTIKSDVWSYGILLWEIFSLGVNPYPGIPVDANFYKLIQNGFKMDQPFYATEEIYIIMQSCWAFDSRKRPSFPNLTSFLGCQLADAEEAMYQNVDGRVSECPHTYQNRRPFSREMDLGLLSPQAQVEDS

## O=C(NOC[C@H](O)CO)c1ccc(F)c(F)c1Nc1ccc(I)cc1F
[1]
  kinase still bound, per cent of control: 100%
[2]
  kinase still bound, per cent of control: 100%
[3]
  kinase still bound, per cent of control: 45%
[4]
  kinase still bound, per cent of control: 100%
[5]
  kinase still bound, per cent of control: 79%
[6]
  kinase still bound, per cent of control: 80%
[7]
  kinase still bound, per cent of control: 100%
[8]
  kinase still bound, per cent of control: 78%
[9]
  kinase still bound, per cent of control: 100%
[10]
  kinase still bound, per cent of control: 100%
[11]
  kinase still bound, per cent of control: 93%
[12]
  kinase still bound, per cent of control: 92%
[13]
  kinase still bound, per cent of control: 83%
[14]
  kinase still bound, per cent of control: 68%
[15]
  kinase still bound, per cent of control: 77%
[16]
  kinase still bound, per cent of control: 69%
[17]
  kinase still bound, per cent of control: 68%
[18]
  kinase still bound, per cent of control: 100%
[19]
  kinase still bound, per cent of control: 99%
[20]
  kinase still bound, per cent of control: 81%
[21]
  kinase still bound, per cent of control: 87%
[22]
  kinase still bound, per cent of control: 100%
[23]
  kinase still bound, per cent of control: 100%
[24]
  kinase still bound, per cent of control: 83%
[25]
  kinase still bound, per cent of control: 93%
[26]
  kinase still bound, per cent of control: 100%
[27]
  kinase still bound, per cent of control: 100%
[28]
  kinase still bound, per cent of control: 88%
[29]
  kinase still bound, per cent of control: 100%
[30]
  kinase still bound, per cent of control: 100%
[31]
  kinase still bound, per cent of control: 89%
[32]
  kinase still bound, per cent of control: 71%
[33]
  kinase still bound, per cent of control: 91%
[34]
  kinase still bound, per cent of control: 86%
[35]
  kinase still bound, per cent of control: 100%
[36]
  kinase still bound, per cent of control: 100%
[37]
  kinase still bound, per cent of control: 100%
[38]
  kinase still bound, per cent of control: 79%
[39]
  kinase still bound, per cent of control: 75%
[40]
  kinase still bound, per cent of control: 100%

## C[C@@H](Oc1cc(-n2cnc3ccc(CN4CCN(C)CC4)cc32)sc1C(N)=O)c1ccccc1C(F)(F)F
[1]
  kinase still bound, per cent of control: 10%
[2]
  kinase still bound, per cent of control: 88%
[3]
  kinase still bound, per cent of control: 100%
[4]
  kinase still bound, per cent of control: 31%
[5]
  kinase still bound, per cent of control: 75%
[6]
  kinase still bound, per cent of control: 100%
[7]
  kinase still bound, per cent of control: 24%
[8]
  kinase still bound, per cent of control: 100%
[9]
  kinase still bound, per cent of control: 4%
[10]
  kinase still bound, per cent of control: 52%
[11]
  kinase still bound, per cent of control: 38%
[12]
  kinase still bound, per cent of control: 97%
[13]
  kinase still bound, per cent of control: 100%
[14]
  kinase still bound, per cent of control: 100%
[15]
  kinase still bound, per cent of control: 13%
[16]
  kinase still bound, per cent of control: 64%
[17]
  kinase still bound, per cent of control: 100%
[18]
  kinase still bound, per cent of control: 100%
[19]
  kinase still bound, per cent of control: 100%
[20]
  kinase still bound, per cent of control: 17%
[21]
  kinase still bound, per cent of control: 100%
[22]
  kinase still bound, per cent of control: 22%
[23]
  kinase still bound, per cent of control: 80%
[24]
  kinase still bound, per cent of control: 100%
[25]
  kinase still bound, per cent of control: 100%
[26]
  kinase still bound, per cent of control: 6%
[27]
  kinase still bound, per cent of control: 100%
[28]
  kinase still bound, per cent of control: 81%
[29]
  kinase still bound, per cent of control: 72%
[30]
  kinase still bound, per cent of control: 16%
[31]
  kinase still bound, per cent of control: 100%
[32]
  kinase still bound, per cent of control: 100%
[33]
  kinase still bound, per cent of control: 63%
[34]
  kinase still bound, per cent of control: 95%
[35]
  kinase still bound, per cent of control: 66%
[36]
  kinase still bound, per cent of control: 99%
[37]
  kinase still bound, per cent of control: 53%
[38]
  kinase still bound, per cent of control: 74%
[39]
  kinase still bound, per cent of control: 0.6%
[40]
  kinase still bound, per cent of control: 89%

## C=CC(=O)Nc1cc(NC(=O)c2ccc(C)c(NC(=O)c3ccno3)c2)cc(C(F)(F)F)c1
[1]
  kinase still bound, per cent of control: 100%
[2]
  kinase still bound, per cent of control: 100%
[3]
  kinase still bound, per cent of control: 100%
[4]
  kinase still bound, per cent of control: 99%
[5]
  kinase still bound, per cent of control: 100%
[6]
  kinase still bound, per cent of control: 93%
[7]
  kinase still bound, per cent of control: 99%
[8]
  kinase still bound, per cent of control: 100%
[9]
  kinase still bound, per cent of control: 100%
[10]
  kinase still bound, per cent of control: 100%
[11]
  kinase still bound, per cent of control: 71%
[12]
  kinase still bound, per cent of control: 100%
[13]
  kinase still bound, per cent of control: 91%
[14]
  kinase still bound, per cent of control: 100%
[15]
  kinase still bound, per cent of control: 100%
[16]
  kinase still bound, per cent of control: 88%
[17]
  kinase still bound, per cent of control: 100%
[18]
  kinase still bound, per cent of control: 71%
[19]
  kinase still bound, per cent of control: 40%
[20]
  kinase still bound, per cent of control: 100%
[21]
  kinase still bound, per cent of control: 63%
[22]
  kinase still bound, per cent of control: 91%
[23]
  kinase still bound, per cent of control: 97%
[24]
  kinase still bound, per cent of control: 97%
[25]
  kinase still bound, per cent of control: 100%
[26]
  kinase still bound, per cent of control: 100%
[27]
  kinase still bound, per cent of control: 100%
[28]
  kinase still bound, per cent of control: 100%
[29]
  kinase still bound, per cent of control: 100%
[30]
  kinase still bound, per cent of control: 85%
[31]
  kinase still bound, per cent of control: 100%
[32]
  kinase still bound, per cent of control: 94%
[33]
  kinase still bound, per cent of control: 67%
[34]
  kinase still bound, per cent of control: 94%
[35]
  kinase still bound, per cent of control: 69%
[36]
  kinase still bound, per cent of control: 96%
[37]
  kinase still bound, per cent of control: 100%
[38]
  kinase still bound, per cent of control: 90%
[39]
  kinase still bound, per cent of control: 86%
[40]
  kinase still bound, per cent of control: 83%
